For this assay, the system named is human pluripotent stem cells (hPSCs). Nature of the assay: Spontaneous differentiation of CHIR-induced mesendodermal cells after CHIR withdrawal, marker immunocytochemistry. It is filed as cell-based. As to conditions: day 4. The procedure:
Mesendoderm differentiation—the media is changed to Advanced RPMI (A-RPMI, Invitrogen) supplemented with 1×L-glutamax and 1× penicillin/streptomycin and either CHIR99021 (CHIR, Stemgent), human Wnt3a (R&D systems), and/or human activin A (R&D systems) at the doses described. Definitive endoderm differentiation—cells are treated with A-RPMI+1×L-glu+1×P/S+5 μM CHIR for 24 hours, then A-RPMI+1×Lglu+1×P/S+100 ng/mL of activin A for 2-3 days. Hepatic differentiation—cells at the definitive endoderm stage are treated with A-RPMI+1×L-glu+1×P/S+1×B27 supplement (Invitrogen)+20 ng/mL BMP-4 (R&D systems)+10 ng/mL FGF2 (Invitrogen) for 5 days, then A-RPMI+1×L-glu+1×P/S+1×B27+10 ng/mL HGF for 5 days, then HCM Hepatocyte Culture Medium (Lonza) supplemented with 20 ng/mL Oncostatin M and 10 ng/mL HGF (Peprotech) for 5 days. Pancreatic differentiation—cells at the definitive endoderm stage are treated with DMEM/F12+2% FBS (Hyclone)+50 ng/mL FGF7 (R&D systems) for 2 days, then high-glucose DMEM (Mediatech)+1% B27+2 μM retinoic acid (Sigma)+0.25 μM KAAD cyclopamine (EMD Millipore)+100 ng/mL recombinant human Noggin (R&D systems) for 4 days, then high-glucose DMEM+1% B27+100 ng/mL Noggin+300 nM indolactam V (Stemgent)+1 μM ALK5 inhibitor II (Axxora) for 4 days. Anterior foregut endoderm differentiation—cells at the definitive endoderm stage are treated with DMEM/F12+1×L-glu+1×B27+200 ng/mL Noggin+10 μM SB431542 (Stemgent) for 3 days. For hindgut endoderm differentiation, cells at the definitive endoderm stage were treated with A-RPMI+1×L-glu+1×P/S+2% FBS+500 ng/mL FGF4 (R&D systems)+5 μM CHIR for 4 days. […] Intermediate mesoderm differentiation—cells are treated with A-RPMI+1×L-glu+1×P/S+5 μM CHIR for 24, 36, or 48 hours, then A-RPMI+1×L-glu+1×P/S+100 ng/mL FGF2+1 μM retinoic acid for 2-3 days. Cap mesenchyme differentiation—cells were treated with A-RPMI+13 L-glu+13 P/S+[…] CHIR for 36 hours, then A-RPMI+13 L-glu+13 P/S+100 ng/ml FGF2+1 mM retinoic acid for 36-42 hours, then A-RPMI+13L-glu+13P/S+100 ng/ml FGF-9 (R&D Systems)+10 ng/ml activin A for 3 days.
For immunofluorescence studies, cultures are washed once with PBS (Invitrogen) and fixed in 4% paraformaldehyde for 15 min at room temperature (RT). Fixed cells are then washed three times in PBS and incubated in blocking buffer (0.3% Triton X-100 (Fisher Scientific) and 5% normal donkey serum (EMD Millipore) in PBS) for 1 hour at RT.
The cells are then incubated with primary antibody overnight at 4° C. or for 2 hours at RT in antibody dilution buffer (0.3% Triton X-100 and 1% BSA (Roche) in PBS). Cells are then washed three times in PBS and incubated with Alexa Fluor 488-, 555-, or 647-conjugated secondary antibodies (1:500) (Molecular Probes) in antibody dilution buffer for 1 hour at RT. For immunostaining with Biotinylated Lotus Tetragonolobus Lectin (LTL, Vector Labs), a Streptavidin/Biotin Blocking Kit (Vector Labs) and Alexa Fluor 488- or 647-conjugated Streptavidin (Molecular Probes) were used according to manufacturer's instructions.
Nuclei can be counterstained with DAPI (Sigma). […] Immunofluorescence is visualized using an inverted fluorescence microscope (Nikon Eclipse Ti, Tokyo, Japan). Quantification is performed by counting a minimum of five random fields at 10× magnification.
To determine whether treatment with CHIR alone is sufficient to induce differentiation towards IM, the Inventors investigated the intrinsic multipotency of CHIR-induced mesendodermal cells by withdrawing CHIR from the culture media after either 24 or 48 hours of induction and allowing the cells to differentiate for another 3-4 days (FIG. 2A).

[1] abbreviates: CHIR pulse 24 hours then withdrawal.

This note sets out measurements from patent publication US20160272937A1, “METHODS OF GENERATING INTERMEDIATE MESODERM CELLS FROM HUMAN PLURIPOTENT STEM CELLS” (THE BRIGHAM AND WOMEN'S HOSPITAL, INC., priority 2013, published 2016).

For the compound `Cc1c[nH]c(-c2cnc(NCCNc3ccc(C#N)cn3)nc2-c2ccc(Cl)cc2Cl)n1` [CHIR99021], under setting [1], the “FOXF1+ lateral plate mesoderm cells” value is recorded as “approximately 40%” and the “cells expressing pluripotency marker OCT4” value is on record as 30-40%. Besides, where the note is “CHIR treatment 48 hours”, the “appearance of OCT4+ cells” value is “eliminated the appearance of OCT4+ cells” and the “cells staining positive for FOXF1” value is reported as “greater than 80%”. Also, under “CHIR treatment alone”, the “cells expressing PAX6” value is recorded as under 1%, the “cells expressing SOX17” value is reported as under 1%, the “cells with protein expression of IM marker PAX2” value is under 1% and the “cells with protein expression of paraxial mesoderm marker TBX6” value is under 10%.
